Assay results as given in patent US20140017701A1, “CHIMERIC PDK1 KINASES” (priority 2011, published 2014).
pIC50: −log10 of the molar value.

Legend:
S6K1-T2-[Thr412Glu] = biological target: T1, S6K1-T2-[Thr412Glu] (Homo sapiens, UniProt P23443, T412E); assay: Protein kinase activity assay, S6K1; assay type: biochemical; conditions: Table I a; percentage of catalytic activity compared to DMSO; Crosstide substrate
T1 construct: His; made in house; host or cells: Sf9 insect cells (baculovirus)
Procedure: For the expression and purification of protein kinases fused to GST, pEBG-2T derived plasmids were transfected into 8×14.5 cm dishes containing HEK293 cells using the PEI method ([…] and […]/14.5 cm dish). The cells were lysed after 48 h in a buffer containing 50 mM Tris-HCl pH 7.5, 1 mM EGTA, 1 mM EDTA, 1% (w/v) Triton X-100, 1 mM sodium orthovanadate, […], 5 mM sodium pyrophosphate, 0.27 M sucrose, 0.1% β-mercaptoethanol, and 1 tablet of protease inhibitor cocktail per 50 ml of buffer. Lysates were frozen in liquid nitrogen and kept at −80° C. until required. Purification involved incubation of the cleared lysate with glutathione sepharose, followed by 2 washes with 0.5 M NaCl in lysis buffer, 8 washes with a buffer containing 50 mM Tris-HCl, 0.1 mM EGTA and 0.1% β-mercaptoethanol (buffer A), and a last wash with buffer A supplemented with 0.26 M sucrose. […]
The protein kinase activity assays were performed essentially as previously described (Engel, M. et al. Embo J 25, 5469-80 (2006)). The assays were done in a 96-well format and 4 μl aliquots spotted on P81 phospho-cellulose papers (Whatman) using epMotion 5070 (Eppendorf), washed in 0.01% phosphoric acid, dried, and then exposed and analyzed using PhosphoImager technology (FLA-9000 Starion, Fujifilm). […]

PDK1 = assay: Protein kinase activity assay, PDK1; assay type: biochemical, human; conditions: for Effect on PDK1 activity: PDK1 wt / PDK1 50-359; for Activity (%) PDK1: Table I a, percentage of catalytic activity compared to DMSO, T308tide substrate, 50 μM stated for PS171
Procedure: For the expression and purification of protein kinases fused to GST, pEBG-2T derived plasmids were transfected into 8×14.5 cm dishes containing HEK293 cells using the PEI method ([…] and […]/14.5 cm dish). The cells were lysed after 48 h in a buffer containing 50 mM Tris-HCl pH 7.5, 1 mM EGTA, 1 mM EDTA, 1% (w/v) Triton X-100, 1 mM sodium orthovanadate, […], 5 mM sodium pyrophosphate, 0.27 M sucrose, 0.1% β-mercaptoethanol, and 1 tablet of protease inhibitor cocktail per 50 ml of buffer. Lysates were frozen in liquid nitrogen and kept at −80° C. until required. Purification involved incubation of the cleared lysate with glutathione sepharose, followed by 2 washes with 0.5 M NaCl in lysis buffer, 8 washes with a buffer containing 50 mM Tris-HCl, 0.1 mM EGTA and 0.1% β-mercaptoethanol (buffer A), and a last wash with buffer A supplemented with 0.26 M sucrose. Elution was performed with this last buffer containing 20 mM glutathione and the GST-fusion protein was cleared from resin by filtration through a “SigmaPrep” spin column (Sigma). GST-fusion proteins were aliquoted, snap frozen in liquid nitrogen and kept at −80° C. until use. Purity at this stage was above 85% as estimated by SDS-PAGE and staining with Coomassie Brilliant Blue R250. PRK2 was expressed from pEBG-2T-PRK2 (Balendran, A. et al. J Biol Chem 275, 20806-13. (2000)), SGK1 from pEBG-2T-SGK1-ΔN[Ser422Asp], PKBα from pEBG-2T-PKBα[Ser473Asp] (Biondi et al., D. R. Embo J 20, 4380-90. (2001)), PKCl from pEBG-2T-PKCl and PKCζ from pEBG-2T-PKCζ. PDK1 and S6K1 were expressed in Sf9 insect cells using a baculovirus expression system from pFastBac-PDK1 and pFastBac-56K1-T2[Thr412Glu].
(§1) The protein kinase activity assays were performed essentially as previously described (Engel, M. et al. Embo J 25, 5469-80 (2006)). The assays were done in a 96-well format and 4 μl aliquots spotted on P81 phospho-cellulose papers (Whatman) using epMotion 5070 (Eppendorf), washed in 0.01% phosphoric acid, dried, and then exposed and analyzed using PhosphoImager technology (FLA-9000 Starion, Fujifilm). Atypical PKC (aPKC) activity assays were performed in a total volume of 20 μl containing 50 mM Tris-HCl pH 7.5, 0.05 mg/ml BSA, 0.1% (v/v) 2-mercaptoethanol, 10 mM MgCl2, 100 μM [γ^32P]ATP (5-50 cpm/pmol), 0.003% Brij, 30-50 ng of aPKC, and MBP (10 μM) or PSRtide (100 μM) as the substrate. After 15 min pre-incubation, the kinase reaction was started by addition of 6 μl of an ATP-Mg mix. When required, lipid activator (LA) phosphatidylserine (100 ng) or PKC lipid activator mix (1×) was included in the pre-incubation. Low basal activity and consistent activation of 1-592 PKCζ and 498 PKCζ by LA was obtained when the pre-incubation time was started by addition of the whole mix on the enzyme.
The substrates were T308tide (200 μM) for PDK1, Kemptide (100 μM) for PKA, and Crosstide (100 μM) for SGK, PKB, S6K, and PRK2. The activity assays for PKCα, β, θ, and δ were performed in the presence of PKC lipid activator mix (1×) using 3 μM of histone H1 as substrate.
The activity assays were performed in duplicates or triplicates (in the case of the temperature stability assay) with less than 10% difference between the duplicate pairs. The activity assays shown were repeated at least twice with similar results. Moreover, most of the assays shown were repeated multiple times with enzymes from independent purifications with similar results. Representative experiments are shown. […]

PKCθ = biological target: T2, PKCθ (Homo sapiens, UniProt Q04759); assay: Protein kinase activity assay, PKCθ; assay type: biochemical; conditions: Table I b; percentage of catalytic activity compared to DMSO; lipid activator mix, histone H1
T2 construct: purchased ProQinase
T2 sequence (Q04759 whole entry): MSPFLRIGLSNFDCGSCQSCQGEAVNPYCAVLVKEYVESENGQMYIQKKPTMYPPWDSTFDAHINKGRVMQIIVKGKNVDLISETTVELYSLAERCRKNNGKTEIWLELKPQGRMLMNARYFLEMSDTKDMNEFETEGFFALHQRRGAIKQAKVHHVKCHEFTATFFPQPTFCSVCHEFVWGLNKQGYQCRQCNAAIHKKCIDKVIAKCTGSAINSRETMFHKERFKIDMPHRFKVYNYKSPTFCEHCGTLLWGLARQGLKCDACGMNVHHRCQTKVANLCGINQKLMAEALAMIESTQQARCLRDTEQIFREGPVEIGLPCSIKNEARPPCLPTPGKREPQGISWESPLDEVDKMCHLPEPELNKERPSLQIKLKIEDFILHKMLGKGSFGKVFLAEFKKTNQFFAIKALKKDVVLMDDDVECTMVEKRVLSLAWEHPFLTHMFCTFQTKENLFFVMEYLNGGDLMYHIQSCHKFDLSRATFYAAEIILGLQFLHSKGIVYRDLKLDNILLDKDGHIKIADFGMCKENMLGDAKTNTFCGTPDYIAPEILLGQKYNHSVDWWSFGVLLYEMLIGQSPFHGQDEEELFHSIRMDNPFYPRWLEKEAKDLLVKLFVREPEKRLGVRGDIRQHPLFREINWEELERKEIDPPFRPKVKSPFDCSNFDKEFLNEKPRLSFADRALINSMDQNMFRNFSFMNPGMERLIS
Procedure: as §1
The substrates were T308tide (200 μM) for PDK1, Kemptide (100 μM) for PKA, and Crosstide (100 μM) for SGK, PKB, S6K, and PRK2. The activity assays for PKCα, β, θ, and δ were performed in the presence of PKC lipid activator mix (1×) using 3 μM of histone H1 as substrate. […]

[1] = system: PKCζ-dependent NFκB activation in U937 cells; assay: PKCζ-dependent NFκB signaling in U937 cells (luciferase reporter, TNFα stimulation); assay type: cell-based; conditions: 3 h pre-incubation, TNFα 50 ng/ml 90 min, read-out: IC50, inhibition of PKCζ-dependent NFκB activation
Procedure: In U937 lymphoma cells, tumor necrosis factor alpha (TNFα) dependent activation of NFκB is dependent on PKCζ activity (Folgueira, L. et al. J Virol 70, 223-31 (1996); Muller, G. et al. Embo J 14, 1961-9 (1995)). U937cells were transiently transfected with a plasmid encoding for luciferase under the control of NFκB response elements (pGL4.32 [luc2P/NF-κB-RE/Hygro], Promega). After serum starvation overnight, the cells were incubated in 96-well plates with the compounds or DMSO (0.25%) for 3 h and stimulated with TNFα (50 ng/ml, PeproTech) for 90 min. Bright-Glo Luciferase Assay reagent (Promega) was added and the luciferase activity measured using the multilabel reader station EnVision (Perkin Elmer).
U937 lymphoma cells were transiently transfected with a plasmid coding for luciferase under the control of the NFκB promoter. Upon stimulation of the cells with TNFα, an increase in luciferase activity is detected. In U937 cells, the NFκB signaling pathway is dependent on PKCζ activity (Muller, G. et al. Embo J 14, 1961-9 (1995)).

T1 sequence (P23443 1-421 T412E limits assumed): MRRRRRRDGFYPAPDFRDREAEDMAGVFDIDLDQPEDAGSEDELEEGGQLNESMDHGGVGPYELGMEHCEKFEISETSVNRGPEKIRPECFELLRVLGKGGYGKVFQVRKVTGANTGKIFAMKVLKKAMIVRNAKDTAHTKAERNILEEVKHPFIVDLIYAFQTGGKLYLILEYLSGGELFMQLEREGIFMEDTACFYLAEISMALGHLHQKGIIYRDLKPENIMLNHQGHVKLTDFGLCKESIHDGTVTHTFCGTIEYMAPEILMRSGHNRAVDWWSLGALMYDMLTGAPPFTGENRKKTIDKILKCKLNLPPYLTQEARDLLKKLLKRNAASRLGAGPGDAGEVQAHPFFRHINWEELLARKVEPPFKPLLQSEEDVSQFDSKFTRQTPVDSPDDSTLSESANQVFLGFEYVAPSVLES

Activity (%) S6K1 (S6K1-T2-[Thr412Glu]) [%]	Effect on PDK1 activity (PDK1)	Activity (%) PDK1 (PDK1) [%]	Activity (%) Novel PKCs PKCθ (PKCθ) [%]	pIC50 [1]	SMILES
47	allosteric activators	246	118	4.30	Cl.O=C(O)CC(Cc1nc2c(Cl)cc(Cl)cc2[nH]1)c1ccc(Cl)cc1 (stereo not shown) [PS171]
41	activates	294	130	4.30	Cl.O=C(O)CC(Cc1nc2cc(-c3ccccc3)ccc2[nH]1)c1ccc(Cl)cc1 (stereo not shown) [PS168]
